Where two headings read alike, the source gives them in different places.
Key:
[1] = system: WiDr, SW620, HT29, HEK_LTV, and T84 cell lines; test: cell proliferation and growth inhibition assay (CCK-8), cell line panel; assay type: cell-based, human; settings: 72 h, FIG. 12
Description: Cell Proliferation and Growth Inhibition Assay. HT-29, HCT-116, WiDr, SW620, SW480, T84, A549, MCF-7, HepG2, Hela cells were cultured in respective growth medium. Cells of log phase were used. 3000-5000 cells/well were seeded in 96-well plates with a 100 μL volume. After 24 h, Compounds were dissolved to […] with DMSO, and a 3-fold serial dilution of the compounds from 5×10^−5 M to […] was performed. 2 μL of compound solution was added to 998 μL of growth medium, the mixture was vortexed sufficiently. 100 μL of the mixture was correspondingly added to the 96-well plate. 2 μL DMSO instead of compound solution was used as the 0% inhibitor control. After coincubation for 72 h, the old medium was removed and 100 μL of 10% CCK-8 in culture medium was added. 2 h later the plates were read in the microplate reader (Bio-Rad) at 450 nm. The data was calculated using Graph Pad Prism version 5.0. The IC50 were fitted using a nonlinear regression model with a sigmoidal dose response.

HepG2 cells [2] = test: expression of Wnt pathway proteins; assay type: cell-based, human; settings: FIG. 3
Description: HepG2 cells were treated by YW1149 (vehicle, 0.1, 1 μM).

HepG2 cells [3] = test: glucose production, G6P expression and AMPK phosphorylation; assay type: cell-based, human
[4] = system: C57BL/6 mice on high-fat diet; settings: intraperitoneal
Source text: C57BL/6 mice (n=6/group) were put either on high-fat (HF) or normal chow (NC) diet.

[5] = system: C57BL/6 mice on Western high-fat diet; test: YW1128 on high-fat diet-induced steatosis, liver protein analysis; assay type: in vivo; settings: I.P. 40 mg/kg/2 days, 11 weeks
Source text: FIGS. 36A to 36D illustrate the effect of YW1128 on a high-fat diet (HFD)-induced steatosis. FIG. 36A illustrates representative liver histology by H&E staining. FIG. 36B illustrates an intraperitoneal glucose tolerance test (IPGTT) performed at the end of a study. FIG. 36C illustrates body weight monitoring performed during the treatment.
C57BL/6 mice (n=7/group) were put on a Western high-fat diet (HFD) or normal chow diet (NCD). Seven weeks later, the mice received either vehicle or YW1128 by I.P., 40 mg/kg/2 days, for 11 weeks. Representative liver histology was measured by H&E staining (FIG. 36A). An intraperitoneal glucose tolerance test (IPGTT) was conducted at the end of the study (FIG. 36B). Body weight for the mice was monitored during the treatment (FIG. 36C).

Wnt/β-catenin pathway = test: dual-luciferase TCF/LEF reporter assay, LiCl-activated, HEK293 cells; assay type: cell-based; settings: for activity at 1 µM: HEK293, 24 h, At 1 μM concentration, remaining Wnt signaling activity, read-out: RLU % (Relative Light Units in reporter gene assays)
Description: Lithium chloride (LiCl), which has been previously established as an activator of the Wnt/β-catenin pathway through its direct and indirect effects on GSK3β was used for pathway activation. The inhibition of the Wnt/β-catenin pathway by a compound may be determined after its incubation with cells for 24 hours.
The assay provided herein is a dual-luciferase assay to measure Wnt/β-catenin pathway activation using a TCF/LEF responsive reporter construct similar to that described previously (Thorne et al., 2010).

[6] = system: C57BL/6 mice on high-fat diet; test: YW1128 in high-fat diet mice (liver histology, IPGTT, body weight); assay type: in vivo
Description: Mice were treated with YW1128 and representative liver histology was observed through H&E staining. C57BL/6 mice were placed on a high-fat diet. Seven weeks later (week 0), the mice received either vehicle or YW1128 by IP injection for 11 weeks. Regarding treatment with YW1128, the mice were initially treated at a dose of 10 mg/kg/2 days, which was increased to 40 mg/kg/2 days from week 8. The mice were then euthanized at the end of 11 weeks. Liver histology for vehicle (FIGS. 33A and 33B) and YW1128 (FIGS. 33C and 33D) was examined by H&E staining.
An intraperitoneal glucose tolerance test (IPGTT) was conducted on high-fat diet (HFD) groups at the end of the study. C57BL/6 mice (n=3-4 per group) were put on a high fat diet. Seven weeks later (week 0), the mice received either vehicle or YW1128 by IP injection for 11 weeks. Regarding the treatment with YW1128, the mice were initially treated at a dose of 10 mg/kg/2 days, which was increased to 40 mg/kg/2 days from week 8. FIG. 34A describes the glucose levels at up to 120 minutes post-injection at week 0. FIG. 34B describes the glucose levels at up to 120 minutes post-injection at week 11, where *P<0.05 and **P<0.01, compared to the […].
The effect of YW1128 on body weight was also observed in mice having normal diets (NC) and those having high-fat (HF) diets. C57BL/6 mice (n=3-4 per group) were put on either an HF diet or an NC diet. Seven weeks later, the mice received either YW1128 or vehicle by IP injection. Regarding the treatment with YW1128, the mice were treated at a dose of 40 mg/kg/2 days for seven weeks. The results of such study are shown in FIG. 35, where *P<0.05 for the comparison between HF-vehicle and the other three groups.

[7] = HepG2, 0.1 μM pyrvinium, 10 μM YW1149
[8] = Homo sapiens, HEK293, Table 3, values in nM, read-out: IC50
[9] = high-fat diet mice, IP injection
[10] = Homo sapiens, HEK293, Table 3, values in μM, read-out: IC50
[11] = Homo sapiens, HEK293, Table 5, read-out: IC50 (nM) or remaining activity at 1 μM: IC50
[12] = Homo sapiens, HEK293, Table 6, read-out: IC50 (nM) or remaining activity at 1 μM: IC50

Cc1c(C(=O)Nc2ccc3ccccc3n2)cnn1C(C)(C)C [YW2049, 1-(Tert-butyl)-5-methyl-N-(quinolin-2-yl)-1H-pyrazole-4-carboxamide]
growth inhibitory activity [1]: micromolar growth inhibitory activity

Cc1cc(/C=C/c2ccc3cc(N(C)C)ccc3[n+]2C)c(C)n1-c1ccccc1 [Pyrvinium, pyrvinium, reference compound]
Axin protein expression (HepG2 cells [2]): increased | β-catenin and target gene c-Myc protein (HepG2 cells [2]): attenuation | expression of glucose 6-phosphatase (G6P) (HepG2 cells [3]; [7]): significantly suppress | glucose production (HepG2 cells [3]; [7]): significantly suppress | phosphorylation of AMPK (HepG2 cells [3]; HepG2 cells): increase phosphorylation | weight gain [4]: decrease weight gain

Cc1ccccc1-n1nnc(C(=O)Nc2ccc3ccccc3n2)c1C [YW1128, 5-Methyl-N-(quinolin-2-yl)-1-(o-tolyl)-1H-1,2,3-triazole-4-carboxamide]
growth inhibitory activity [1]: micromolar growth inhibitory activity | CK1a in liver [5]: did not show any significant change | phosphorylation of AMPKα1 at threonine 172 (p-AMPKα) in liver ([5]; vs vehicle-treated livers, 40 mg/kg): increased phosphorylation | activity at 1 µM (Wnt/β-catenin pathway; Homo sapiens): 3.7% | IC50 (Wnt/β-catenin pathway; [8]): 7.7 nM | liver histology (H&E), fatty liver disease ([6]; high-fat diet mice, IP 11 weeks): did not exhibit any histology of fatty liver disease | body weight gain [6, 9]: decrease body weight gain | glucose tolerance (IPGTT) [6, 9]: significantly improve glucose tolerance | toxicity of subchronic treatment ([6]; mice, IP, up to 40 mg/kg/2 days): did not cause any obvious toxicity

1-(2-Fluorophenyl)-5-methyl-N-(quinolin-2-yl)-1H-pyrazole-4-carboxamide [YW2035]
growth inhibitory activity [1]: micromolar growth inhibitory activity

Cc1c(C(=O)Nc2ccc3ccccc3n2)nnn1-c1ccc(F)cc1[N+](=O)[O-] [YW1171, 1-(4-Fluoro-2-nitrophenyl)-5-methyl-N-(quinolin-2-yl)-1H-1,2,3-triazole-4-carboxamide]
activity at 1 µM (Wnt/β-catenin pathway; Homo sapiens): 77.8% | IC50 (Wnt/β-catenin pathway; [10]): 5000 nM

Cc1ccc(-n2nnc(C(=O)NCc3ccccn3)c2C)cc1 [Compound 25, 5-Methyl-N-(pyridin-2-ylmethyl)-1-(p-tolyl)-1H-1,2,3-triazole-4-carboxamide]
IC50 (Wnt/β-catenin pathway; [11]): > 1000 nM

CCc1c(C(=O)Nc2ccc3ccccc3n2)nnn1-c1ccccc1F [YW2018, 5-Ethyl-1-(2-fluorophenyl)-N-(quinolin-2-yl)-1H-1,2,3-triazole-4-carboxamide]
activity at 1 µM (Wnt/β-catenin pathway; Homo sapiens): 2.3% | IC50 (Wnt/β-catenin pathway; [8]): 47 nM

Cc1ccccc1-n1nnc(C(=O)Nc2nc3ccccc3s2)c1C [YW1132, N-(benzo[d]thiazol-2-yl)-5-methyl-1-(o-tolyl)-1H-1,2,3-triazole-4-carboxamide]
activity at 1 µM (Wnt/β-catenin pathway; Homo sapiens): 4.9% | IC50 (Wnt/β-catenin pathway; [8]): 34 nM

Cc1ccccc1-n1nnc(C(=O)Nc2ccc3ccccc3n2)c1C [Compound 28, 5-Methyl-N-(quinolin-2-yl)-1-(o-tolyl)-1H-1,2,3-triazole-4-carboxamide]
IC50 (Wnt/β-catenin pathway; [12]): 6.3 nM

Cc1cccc(-n2nnc(C(=O)Nc3ccc4ccccc4n3)c2C)c1C [YW1170, 1-(2,3-Dimethylphenyl)-5-methyl-N-(quinolin-2-yl)-1H-1,2,3-triazole-4-carboxamide]
activity at 1 µM (Wnt/β-catenin pathway; Homo sapiens): 17.8% | IC50 (Wnt/β-catenin pathway; [8]): 567 nM

Cc1ccc(-n2nnc(C(=O)Nc3cc(C)no3)c2C)cc1 [Compound 24, 5-Methyl-N-(3-methylisoxazol-5-yl)-1-(p-tolyl)-1H-1,2,3-triazole-4-carboxamide]
IC50 (Wnt/β-catenin pathway; [11]): 48000 nM

Cc1ccc(-n2nnc(C(=O)NCc3ccccn3)c2C)cc1 [YW1121, 5-Methyl-N-(pyridin-2-ylmethyl)-1-(p-tolyl)-1H-1,2,3-triazole-4-carboxamide]
activity at 1 µM (Wnt/β-catenin pathway; Homo sapiens): 92.1%

Cc1ccccc1-n1nnc(C(=O)Nc2ccc3ccccc3c2)c1C [Compound 31, 5-Methyl-N-(naphthalen-2-yl)-1-(o-tolyl)-1H-1,2,3-triazole-4-carboxamide]
IC50 (Wnt/β-catenin pathway; Table 7, read-out: IC50): 471 nM

Cc1c(C(=O)Nc2ccc3ccccc3n2)nnn1-c1cccc2ccccc12 [Compound 43, 5-Methyl-1-(naphthalen-1-yl)-N-(quinolin-2-yl)-1H-1,2,3-triazole-4-carboxamide]
IC50 (Wnt/β-catenin pathway; [12]): 4000 nM

CC(C)c1c(C(=O)Nc2ccc3ccccc3n2)nnn1-c1ccccc1F [Compound 46, 1-(2-Fluorophenyl)-5-isopropyl-N-(quinolin-2-yl)-1H-1,2,3-triazole-4-carboxamide]
IC50 (Wnt/β-catenin pathway; Table 7, read-out: IC50): 177 nM

Cc1ccc(-n2nnc(C(=O)Nc3cccc(C)n3)c2C)cc1 [Compound 21, 5-Methyl-N-(6-methylpyridin-2-yl)-1-(p-tolyl)-1H-1,2,3-triazole-4-carboxamide]
IC50 (Wnt/β-catenin pathway; [11]): 273 nM

Cc1ccccc1-n1nnc(C(=O)Nc2nc(-c3ccccc3)cs2)c1C [YW1183, 5-Methyl-N-(4-phenylthiazol-2-yl)-1-(o-tolyl)-1H-1,2,3-triazole-4-carboxamide]
activity at 1 µM (Wnt/β-catenin pathway; Homo sapiens): 90.8% | IC50 (Wnt/β-catenin pathway; [10]): 22000 nM

Cc1ccc(-n2nnc(C(=O)Nc3ccc4c(=O)cc(C)oc4c3)c2C)cc1 [YW1123, 5-Methyl-N-(2-methyl-4-oxo-4H-chromen-7-yl)-1-(p-tolyl)-1H-1,2,3-triazole-4-carboxamide]
activity at 1 µM (Wnt/β-catenin pathway; Homo sapiens): 87.6%

Cc1ccc(-n2nnc(C(=O)Nc3ccccn3)c2C)cc1 [YW1119, 5-Methyl-N-(pyridin-2-yl)-1-(p-tolyl)-1H-1,2,3-triazole-4-carboxamide]
activity at 1 µM (Wnt/β-catenin pathway; Homo sapiens): 106%

Cc1c(C(=O)Nc2ccc3ccccc3n2)nnn1-c1ccccc1C(N)=O [YW1182, 1-(2-Carbamoylphenyl)-5-methyl-N-(quinolin-2-yl)-1H-1,2,3-triazole-4-carboxamide]
activity at 1 µM (Wnt/β-catenin pathway; Homo sapiens): 89.9% | IC50 (Wnt/β-catenin pathway; [10]): > 100000 nM

Cc1ccc(-n2c(C)cc(C(=O)Nc3nc(-c4ccccc4)cs3)c2C)cc1 [YW1114, 2,5-Dimethyl-N-(4-phenylthiazol-2-yl)-1-(p-tolyl)-1H-pyrrole-3-carboxamide]
activity at 1 µM (Wnt/β-catenin pathway; Homo sapiens): 34.6% | IC50 (Wnt/β-catenin pathway; [8]): 379 nM

Cc1ccccc1-n1nnc(C(=O)Nc2nc3ccccc3s2)c1C [Compound 29, N-(benzo[d]thiazol-2-yl)-5-methyl-1-(o-tolyl)-1H-1,2,3-triazole-4-carboxamide]
IC50 (Wnt/β-catenin pathway; Table 7, read-out: IC50): 34 nM

Cc1ccc(-n2c(C)cc(C(=O)NCc3ccccc3)c2C)cc1 [YW1104, N-Benzyl-2,5-dimethyl-1-(p-tolyl)-1H-pyrrole-3-carboxamide]
activity at 1 µM (Wnt/β-catenin pathway; Homo sapiens): 92.9% | IC50 (Wnt/β-catenin pathway; [10]): 49000 nM

Source: US12378220B2, “WNT signaling pathway inhibitors for treatments of disease” (University of Maryland, Baltimore, priority 2016, dated 2025)
